Laboratory results taken from patent US10703733B2, “MCL-1 inhibitors” (Gilead Sciences, Inc., priority 2018, dated 2020).
Where two headings read alike, the source gives them in different places.

Legend:
SKBR3 cells = test: SKBR3 Cell Viability Assay (CellTiter Glo); assay type: cell-based; settings: CellTiter Glo luminescence, read-out: MCL-1 CV SKBR3 EC50
Outline: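 Viability read as CellTiter Glo luminescence after 72 h of compound exposure at 37° C./5% CO2, using 6,000 SKBR3 cells per well in McCoy 5A with 10% FBS. Percent inhibition scaled between DMSO wells and 10 μM puromycin wells.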

[1] = molecular target: MCL-1/Bim interaction (recombinant human MCL-1 protein, residues 171-327; biotinylated human Bim peptide, residues 51-76) (Homo sapiens (Human), UniProt Q07820); test: MCL-1/Bim Binding AlphaLISA Assay; settings: 0.0625 nM 6xHis-Mcl-1 (171-327), 0.0625 nM biotinylated-Bim peptide
Sequence of MCL-1/Bim interaction (recombinant human MCL-1 protein, residues 171-327; biotinylated human Bim peptide, residues 51-76) (Q07820 171-327): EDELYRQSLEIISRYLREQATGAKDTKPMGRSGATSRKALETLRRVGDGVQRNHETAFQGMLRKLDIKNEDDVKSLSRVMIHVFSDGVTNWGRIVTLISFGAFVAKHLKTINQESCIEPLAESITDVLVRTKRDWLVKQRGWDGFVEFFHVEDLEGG
Outline: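 Compounds first sat 1 h with MCL-1 (171-327, 0.0625 nM), followed by 2 h with biotin-Bim 51-76 (0.0625 nM), then sequential 1 h anti-His acceptor and streptavidin donor bead steps; buffer Hepes pH 7.5 with NaCl, Brij 35, DTT, BSA. AlphaScreen signal converted to % inhibition using DMSO (negative) and protein/peptide-free (positive) controls.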

Structure (SMILES)	EC50 (SKBR3 cells; Homo sapiens, SK-BR-3, 72 h)	IC50 [1]	EC50 (SKBR3 cells; 72 hours)
CO[C@H]1/C=C/C[C@H](C)C[S@@](=O)(NC(=O)c2cn(C)nc2N)=NC(=O)c2ccc3c(c2)N(C[C@@H]2CC[C@H]21)C[C@@]1(CCCc2cc(Cl)ccc21)CO3 [Example 173]	67.9 nM	0.087 nM	–
CO[C@H]1/C=C/C[C@H](C)C[S@@](=O)(NC(=O)c2cc3n(c2F)CCCC3)=NC(=O)c2ccc3c(c2)N(C[C@@H]2CC[C@H]21)C[C@@]1(CCCc2cc(Cl)ccc21)CO3 [Example 174]	–	0.153 nM	103 nM
COC1CCn2cc(C(=O)N[S@@]3(=O)=NC(=O)c4ccc5c(c4)N(C[C@@H]4CC[C@H]4[C@@H](OC)/C=C/C[C@H](C)C3)C[C@@]3(CCCc4cc(Cl)ccc43)CO5)cc2C1 (stereo partly shown) [Example 175]	33.9 nM	0.14 nM	–
CO[C@H]1/C=C/C[C@H](C)C[S@@](=O)(NC(=O)c2cnn(C3CCC3)c2)=NC(=O)c2ccc3c(c2)N(C[C@@H]2CC[C@H]21)C[C@@]1(CCCc2cc(Cl)ccc21)CO3 [Example 176]	79.3 nM	0.138 nM	–
COC(=O)N1CCn2cc(C(=O)N[S@@]3(=O)=NC(=O)c4ccc5c(c4)N(C[C@@H]4CC[C@H]4[C@@H](OC)/C=C/C[C@H](C)C3)C[C@@]3(CCCc4cc(Cl)ccc43)CO5)cc2C1 [Example 177]	46.4 nM	0.129 nM	–
CO[C@H]1/C=C/C[C@H](C)C[S@@](=O)(NC(=O)[C@H]2C[C@@H](C(C)(C)O)C2)=NC(=O)c2ccc3c(c2)N(C[C@@H]2CC[C@H]21)C[C@@]1(CCCc2cc(Cl)ccc21)CO3 [Example 178]	144 nM	0.141 nM	–
CO[C@H]1/C=C/C[C@H](C)C[S@@](=O)(NC(=O)N[C@@H]2CC[C@H]2OC)=NC(=O)c2ccc3c(c2)N(C[C@@H]2CC[C@H]21)C[C@@]1(CCCc2cc(Cl)ccc21)CO3 [Example 179]	82.5 nM	0.102 nM	–
CO[C@H]1/C=C/C[C@H](C)C[S@@](=O)(NC(=O)c2cc3n(c2)CCN(C(C)=O)C3)=NC(=O)c2ccc3c(c2)N(C[C@@H]2CC[C@H]21)C[C@@]1(CCCc2cc(Cl)ccc21)CO3 [Example 180]	134 nM	0.092 nM	–
CO[C@H]1/C=C/C[C@H](C)C[S@@](=O)(NC(=O)N[C@@H]2C[C@H]2C2CCOCC2)=NC(=O)c2ccc3c(c2)N(C[C@@H]2CC[C@H]21)C[C@@]1(CCCc2cc(Cl)ccc21)CO3 [Example 181]	37.9 nM	0.146 nM	–
CO[C@H]1/C=C/C[C@H](C)C[S@@](=O)(NC(=O)N[C@@H]2C[C@H]2c2ccnn2C)=NC(=O)c2ccc3c(c2)N(C[C@@H]2CC[C@H]21)C[C@@]1(CCCc2cc(Cl)ccc21)CO3 [Example 182]	136 nM	0.144 nM	–
CO[C@H]1/C=C/C[C@H](C)C[S@@](=O)(NC(=O)c2cc(CO)n(C)c2)=NC(=O)c2ccc3c(c2)N(C[C@@H]2CC[C@H]21)C[C@@]1(CCCc2cc(Cl)ccc21)CO3 [Example 185]	99.2 nM	0.041 nM	–
CO[C@H]1/C=C/C[C@H](C)C[S@@](=O)(NC(=O)N[C@H]2C[C@@](C)(O)C2)=NC(=O)c2ccc3c(c2)N(C[C@@H]2CC[C@H]21)C[C@@]1(CCCc2cc(Cl)ccc21)CO3 [Example 186]	168 nM	0.066 nM	–
CCc1nn(C)cc1C(=O)N[S@@]1(=O)=NC(=O)c2ccc3c(c2)N(C[C@@H]2CC[C@H]2[C@@H](OC)/C=C/C[C@H](C)C1)C[C@@]1(CCCc2cc(Cl)ccc21)CO3 [Example 187]	43.1 nM	0.107 nM	–
COc1nn(C)cc1C(=O)N[S@@]1(=O)=NC(=O)c2ccc3c(c2)N(C[C@@H]2CC[C@H]2[C@@H](OC)/C=C/C[C@H](C)[C@H]1C)C[C@@]1(CCCc2cc(Cl)ccc21)CO3 [Example 188]	78.3 nM	0.069 nM	–
CO[C@H]1/C=C/C[C@H](C)C[S@@](=O)(NC(=O)N[C@H]2C[C@H](CO)C2)=NC(=O)c2ccc3c(c2)N(C[C@@H]2CC[C@H]21)C[C@@]1(CCCc2cc(Cl)ccc21)CO3 [Example 189]	64.3 nM	0.033 nM	–
COc1c(C(=O)N[S@@]2(=O)=NC(=O)c3ccc4c(c3)N(C[C@@H]3CC[C@H]3[C@@H](OC)/C=C/C[C@H](C)C2)C[C@@]2(CCCc3cc(Cl)ccc32)CO4)cn2c1COCC2 [Example 191]	123 nM	0.103 nM	–
CO[C@H]1/C=C/C[C@H](C)C[S@@](=O)(NC(=O)N[C@H]2C[C@](C)(OC)C2)=NC(=O)c2ccc3c(c2)N(C[C@@H]2CC[C@H]21)C[C@@]1(CCCc2cc(Cl)ccc21)CO3 [Example 192]	39.7 nM	0.054 nM	–
CO[C@H]1/C=C/C[C@H](C)C[S@@](=O)(NC(=O)c2cc3n(n2)CCCO3)=NC(=O)c2ccc3c(c2)N(C[C@@H]2CC[C@H]21)C[C@@]1(CCCc2cc(Cl)ccc21)CO3 [Example 197]	130 nM	0.041 nM	–
CO[C@H]1/C=C/C[C@H](C)C[S@@](=O)(NC(=O)C2CC(O)(C(F)(F)F)C2)=NC(=O)c2ccc3c(c2)N(C[C@@H]2CC[C@H]21)C[C@@]1(CCCc2cc(Cl)ccc21)CO3 (stereo partly shown) [Example 198]	104 nM	0.043 nM	–
CC[C@@H]1CC1NC(=O)N[S@@]1(=O)=NC(=O)c2ccc3c(c2)N(C[C@@H]2CC[C@H]2[C@@H](OC)/C=C/C[C@H](C)C1)C[C@@]1(CCCc2cc(Cl)ccc21)CO3 (stereo partly shown) [Example 199]	58.2 nM	0.117 nM	–
CC[C@H]1C/C=C/[C@H](OC)[C@@H]2CC[C@H]2CN2C[C@@]3(CCCc4cc(Cl)ccc43)COc3ccc(cc32)C(=O)N=[S@](=O)(NC(=O)c2cnn(C)c2)C1 [Example 201]	103 nM	0.042 nM	–
CC[C@H]1C/C=C/[C@H](OC)[C@@H]2CC[C@H]2CN2C[C@@]3(CCCc4cc(Cl)ccc43)COc3ccc(cc32)C(=O)N=[S@](=O)(NC(=O)c2cc3n(c2)CCOC3)C1 [Example 202]	91 nM	0.082 nM	–
CO[C@H]1/C=C/C[C@H](C)C[S@@](=O)(NC(=O)c2cc(C)co2)=NC(=O)c2ccc3c(c2)N(C[C@@H]2CC[C@H]21)C[C@@]1(CCCc2cc(Cl)ccc21)CO3 [Example 203]	76.1 nM	0.073 nM	–
CO[C@H]1/C=C/C[C@H](C)C[S@@](=O)(NC(=O)c2coc(C)c2)=NC(=O)c2ccc3c(c2)N(C[C@@H]2CC[C@H]21)C[C@@]1(CCCc2cc(Cl)ccc21)CO3 [Example 204]	136 nM	0.048 nM	–
CO[C@H]1/C=C/C[C@H](C)C[S@@](=O)(NC(=O)NC2C[C@H]2C(F)F)=NC(=O)c2ccc3c(c2)N(C[C@@H]2CC[C@H]21)C[C@@]1(CCCc2cc(Cl)ccc21)CO3 (stereo partly shown) [Example 207]	44 nM	0.162 nM	–
CO[C@H]1/C=C/C[C@H](C)C[S@@](=O)(NC(=O)c2cc3n(c2)CCc2c-3cnn2C)=NC(=O)c2ccc3c(c2)N(C[C@@H]2CC[C@H]21)C[C@@]1(CCCc2cc(Cl)ccc21)CO3 [Example 208]	45 nM	0.136 nM	–
COC[C@H]1C[C@@H](NC(=O)N[S@@]2(=O)=NC(=O)c3ccc4c(c3)N(C[C@@H]3CC[C@H]3[C@@H](OC)/C=C/C[C@H](C)C2)C[C@@]2(CCCc3cc(Cl)ccc32)CO4)C1 [Example 210]	43.4 nM	0.071 nM	–
COCC12CC(NC(=O)N[S@@]3(=O)=NC(=O)c4ccc5c(c4)N(C[C@@H]4CC[C@H]4[C@@H](OC)/C=C/C[C@H](C)C3)C[C@@]3(CCCc4cc(Cl)ccc43)CO5)(C1)C2 [Example 211]	54.2 nM	0.082 nM	–
CNc1nn(C)cc1C(=O)N[S@@]1(=O)=NC(=O)c2ccc3c(c2)N(C[C@@H]2CC[C@H]2[C@@H](OC)/C=C/C[C@H](C)C1)C[C@@]1(CCCc2cc(Cl)ccc21)CO3 [Example 212]	37.6 nM	0.04 nM	–
